In BindingDB's records for PubMed 40236523 (Emory University):
Structures can show the parent of a compound that is named as a salt. Where a SMILES comes first, the peptide text is derived from it. Bridges are numbered along the chain shown (N, C = ends). [ ]: non-standard residue; d: D form. The star is where a group is joined. Trp(7-Me) = Cc1cccc2c(C[C@H](N)C(=O)O)c[nH]c12; Lys(Me3) = C[N+](C)(C)CCCC[C@H](N)C(=O)O; 2Nal = N[C@@H](Cc1ccc2ccccc2c1)C(=O)O; AEF = NCCOc1ccc(C[C@H](N)C(=O)O)cc1; 3Pal = N[C@@H](Cc1cccnc1)C(=O)O; Lys(Me) = CNCCCC[C@H](N)C(=O)O; Pen = CC(C)(S)[C@H](N)C(=O)O; Thp = NC1(C(=O)O)CCOCC1; Me2NCH2CH2 = CN(C)CC*; Tfa = O=C(C(F)(F)F)*; Sar = CNCC(=O)O

Biological target: Signal transducer and activator of transcription 3 (Homo sapiens, UniProt P40763)
Test: Inhibition of STAT3 phosphorylation in human PBMC cells preincubated for 30 mins followed by addition of IL-23 and measured after 10 mins

Signal transducer and activator of transcription 3, sequence (P40763 whole entry): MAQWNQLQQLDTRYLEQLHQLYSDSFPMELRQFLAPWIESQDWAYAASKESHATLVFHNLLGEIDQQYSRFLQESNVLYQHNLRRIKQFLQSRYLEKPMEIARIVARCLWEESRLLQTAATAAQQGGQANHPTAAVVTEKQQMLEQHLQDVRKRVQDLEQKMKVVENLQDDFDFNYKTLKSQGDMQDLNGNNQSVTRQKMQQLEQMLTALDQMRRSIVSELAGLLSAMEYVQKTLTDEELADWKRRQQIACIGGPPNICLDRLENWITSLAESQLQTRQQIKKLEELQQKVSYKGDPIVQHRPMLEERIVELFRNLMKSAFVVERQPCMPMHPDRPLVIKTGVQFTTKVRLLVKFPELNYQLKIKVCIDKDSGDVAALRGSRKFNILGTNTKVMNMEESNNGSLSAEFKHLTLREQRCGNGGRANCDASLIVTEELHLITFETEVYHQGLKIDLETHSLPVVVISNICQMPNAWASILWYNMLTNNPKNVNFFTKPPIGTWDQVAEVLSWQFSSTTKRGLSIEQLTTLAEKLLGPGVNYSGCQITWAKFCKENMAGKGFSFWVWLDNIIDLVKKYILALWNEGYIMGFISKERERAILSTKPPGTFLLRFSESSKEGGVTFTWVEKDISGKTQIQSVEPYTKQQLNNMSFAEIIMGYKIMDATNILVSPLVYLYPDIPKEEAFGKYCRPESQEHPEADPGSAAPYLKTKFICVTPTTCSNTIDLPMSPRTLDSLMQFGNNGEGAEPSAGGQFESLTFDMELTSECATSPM

| Compound | IC50 [pM] |
| --- | --- |
| CC(=O)NCCCC[C@@H]1NC(=O)[C@H](Cc2c[nH]c3c(C)cccc23)NC(=O)[C@H]([C@@H](C)O)NC(=O)[C@H](CC(N)=O)NC(=O)[C@@H](NC(=O)CCOCCOCC[N+](C)(C)C)C(C)(C)SSC(C)(C)[C@@H](C(=O)N[C@@H](Cc2ccc(OCCN)cc2)C(=O)N[C@@H](Cc2ccc3ccccc3c2)C(=O)NC2(C(=O)N[C@@H](CCC(=O)O)C(=O)N[C@@H](CC(N)=O)C(=O)N[C@@H](Cc3cccnc3)C(=O)N(C)CC(N)=O)CCOCC2)NC1=O | 6 |
| CC(=O)N[C@@H](CCCC[N+](C)(C)C)C(=O)N[C@@H]1C(=O)N[C@@H](CC(=O)N(C)C)C(=O)N[C@@H]([C@@H](C)O)C(=O)N[C@@H](Cc2c[nH]c3c(C)cccc23)C(=O)N[C@@H](CCCCN(C)C(C)=O)C(=O)N[C@H](C(=O)N[C@@H](Cc2ccc(OCCN(C)C)cc2)C(=O)N[C@@H](Cc2ccc3ccccc3c2)C(=O)NC2(C(=O)N[C@@H](CCC(=O)O)C(=O)N[C@@H](CC(N)=O)C(=O)N[C@@H](Cc3cccnc3)C(=O)N(C)CC(=O)N(C)C)CCOCC2)C(C)(C)SSC1(C)C (Ac-[Lys(Me3)][Pen]D(NMe2)T[Trp(7-Me)][Lys(Me)](Ac)[Pen]Y(Me2NCH2CH2)[2Nal][Thp]EN[3Pal][Sar]-NMe2; disulfide 2-7) | 8 |

Second part, the molecule after the results:

| IC50 [pM] | Compound |
| --- | --- |
| 8 | CC(=O)NCCCC[C@@H]1NC(=O)[C@H](Cc2c[nH]c3c(C)cccc23)NC(=O)[C@H]([C@@H](C)O)NC(=O)[C@H](CC(N)=O)NC(=O)[C@@H](NC(C)=O)C(C)(C)SSC(C)(C)[C@@H](C(=O)N[C@@H](Cc2ccc(OCCCCC[N+](C)(C)C)cc2)C(=O)N[C@@H](Cc2ccc3ccccc3c2)C(=O)NC2(C(=O)N[C@@H](CCCCNC(C)=O)C(=O)N[C@@H](CC(N)=O)C(=O)N[C@@H](Cc3cccnc3)C(=O)N(C)CC(N)=O)CCOCC2)NC1=O |
| 3 | CC(=O)N(C)CCCC[C@@H]1NC(=O)[C@H](Cc2c[nH]c3c(C)cccc23)NC(=O)[C@H]([C@@H](C)O)NC(=O)[C@H](CC(=O)N(C)C)NC(=O)[C@@H](NC(=O)C(F)(F)F)C(C)(C)SSC(C)(C)[C@@H](C(=O)N[C@@H](Cc2ccc(OCCN(C)C)cc2)C(=O)N[C@@H](Cc2ccc3ccccc3c2)C(=O)NC2(C(=O)N[C@@H](CCC(=O)O)C(=O)N[C@@H](CC(N)=O)C(=O)N[C@@H](Cc3cccnc3)C(=O)N(C)CC(=O)N(C)C)CCOCC2)NC1=O (Tfa-[Pen]D(NMe2)T[Trp(7-Me)][Lys(Me)](Ac)[Pen]Y(Me2NCH2CH2)[2Nal][Thp]EN[3Pal][Sar]-NMe2; disulfide 1-6) |
| 8 | Cc1cccc2c(C[C@@H]3NC(=O)[C@H]([C@@H](C)O)NC(=O)[C@H](CC(N)=O)NC(=O)[C@@H](NC(=O)C(F)(F)F)C(C)(C)SSC(C)(C)[C@@H](C(=O)N[C@@H](Cc4ccc(OCCN)cc4)C(=O)N[C@@H](Cc4ccc5ccccc5c4)C(=O)NC4(C(=O)N[C@@H](CCC(=O)N(C)C)C(=O)N[C@@H](CC(N)=O)C(=O)N[C@@H](Cc5cccnc5)C(=O)N(C)CC(N)=O)CCOCC4)NC(=O)[C@H](CCC(=O)N(C)C)NC3=O)c[nH]c12 (Tfa-[Pen]NT[Trp(7-Me)]E(NMe2)[Pen][AEF][2Nal][Thp]E(NMe2)N[3Pal][Sar]-NH2; disulfide 1-6) |
